Earlier results, collected in patent publication US20070203140A1, “N-hydroxyguanidines as modulators of indoleamine 2,3-dioxygenase” (priority 2006, published 2007).

How the values were obtained:
[1] = tested on: P815 tumor; conditions: pre-immunized immune-competent mice
[2] = tested on: LLC tumors; conditions: LLC tumors in C57B1/6 mice, versus placebo

In the case of `Cn1cc(C[C@H](N)C(=O)O)c2ccccc21` [Example 1-MT, 1-methyl-tryptophan], the growth of tumors [1] is given as “inhibited” and the formation of tumors [2] is given as “markedly delayed”.
